Experimental data: patent US6310043A (priority 1999, dated 2001)
Like-named read-outs stand apart in the source and are kept apart here.

How the values were obtained:
[1] = system: Vero cells exposed to SLT; assay type: cell-based, African Green Monkey
[2] = molecular target: SLT-1 (Verotoxin I) (Bacteriophage H30, UniProt P69178); test: biochemical; assay type: binding, E. coli
[3] = molecular target: SLT-2 (VT-2) (Escherichia phage 933W, UniProt P09386); assay type: binding, E. coli
[4] = molecular target: SLT-1 (VT-1) (Bacteriophage H30, UniProt P69178); assay type: binding, E. coli
SLT-1 (VT-1), sequence (P69178 whole entry, looked up): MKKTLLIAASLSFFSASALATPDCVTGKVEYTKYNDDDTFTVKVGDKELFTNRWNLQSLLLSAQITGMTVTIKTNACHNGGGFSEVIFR

[5] = molecular target: SLT-1 (Bacteriophage H30, UniProt P69178); test: biochemical; assay type: binding, E. coli
SLT-1, sequence (P69178 21-89 limits assumed): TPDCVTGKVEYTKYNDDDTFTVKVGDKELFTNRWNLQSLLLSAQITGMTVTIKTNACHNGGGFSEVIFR

SLT-1 (Verotoxin I), sequence (P69178 whole entry, looked up): as the sequence (P69178 whole entry, looked up) above
SLT-2 (VT-2), sequence (P09386 whole entry, looked up): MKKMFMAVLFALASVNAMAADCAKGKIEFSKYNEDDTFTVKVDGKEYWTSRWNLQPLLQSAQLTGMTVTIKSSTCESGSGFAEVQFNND

SMILES: CO[C@@H]1O[C@H](CO)[C@@H](O[C@@H]2O[C@H](CO)[C@H](O[C@H]3O[C@H](CO)[C@H](O)[C@H](O)[C@H]3O)[C@H](O)[C@H]2OCCOC(=O)NCC(O)CNC(=O)OCCO[C@H]2[C@H](O[C@H]3[C@H](O)[C@@H](O)[C@H](OC)O[C@@H]3CO)O[C@H](CO)[C@H](O[C@H]3O[C@H](CO)[C@H](O)[C@H](O)[C@H]3O)[C@@H]2O)[C@H](O)[C@H]1O [Bridged P^k -trisaccharide methyl glycoside dimer]
- inhibition of cell lysis caused by the SLT [1]: more effective than a Pk-BSA conjugate at inhibiting cell lysis
- IC50 [2]: 55 µM
- activity relative to the Pk trisaccharide alone ([2]; ELISA, VT-I): 38 times

SMILES: CO[C@@H]1O[C@H](CO)[C@@H](O[C@@H]2O[C@H](CO)[C@H](O[C@H]3O[C@H](CO)[C@H](O)[C@H](O)[C@H]3O)[C@H](O)[C@H]2OCCOC(=O)NCC(CNC(=O)OCCO[C@H]2[C@H](O[C@H]3[C@H](O)[C@@H](O)[C@H](OC)O[C@@H]3CO)O[C@H](CO)[C@H](O[C@H]3O[C@H](CO)[C@H](O)[C@H](O)[C@H]3O)[C@@H]2O)OC(=O)NCCCCCCCCNc2c(NCCNC(=O)CSCCCO[C@@H]3[C@@H](OCCCSCC(=O)NCCNc4c(NCCCCCCCCNC(=O)OC(CNC(=O)OCCO[C@H]5[C@H](O[C@H]6[C@H](O)[C@@H](O)[C@H](OC)O[C@@H]6CO)O[C@H](CO)[C@H](O[C@H]6O[C@H](CO)[C@H](O)[C@H](O)[C@H]6O)[C@@H]5O)CNC(=O)OCCO[C@H]5[C@H](O[C@H]6[C@H](O)[C@@H](O)[C@H](OC)O[C@@H]6CO)O[C@H](CO)[C@H](O[C@H]6O[C@H](CO)[C@H](O)[C@H](O)[C@H]6O)[C@@H]5O)c(=O)c4=O)[C@H](OC)O[C@H](CO)[C@H]3OCCCSCC(=O)NCCNc3c(NCCCCCCCCNC(=O)OC(CNC(=O)OCCO[C@H]4[C@H](O[C@H]5[C@H](O)[C@@H](O)[C@H](OC)O[C@@H]5CO)O[C@H](CO)[C@H](O[C@H]5O[C@H](CO)[C@H](O)[C@H](O)[C@H]5O)[C@@H]4O)CNC(=O)OCCO[C@H]4[C@H](O[C@H]5[C@H](O)[C@@H](O)[C@H](OC)O[C@@H]5CO)O[C@H](CO)[C@H](O[C@H]5O[C@H](CO)[C@H](O)[C@H](O)[C@H]5O)[C@@H]4O)c(=O)c3=O)c(=O)c2=O)[C@H](O)[C@H]1O [Compound 24]
- IC50 ([2]; read-out: IC50): 0.048 µM
- IC50 [3]: 0.029 µM
- IC50 [4]: 0.47 µM

SMILES: CO[C@@H]1O[C@H](CO)[C@@H](O[C@@H]2O[C@H](CO)[C@H](O[C@H]3O[C@H](CO)[C@H](O)[C@H](O)[C@H]3O)[C@H](O)[C@H]2O)[C@H](O)[C@H]1O [P^k -trisaccharide methyl glycoside, reference compound]
- Kd [5]: ~1000 µM
- IC50 ([2]; IC50): 2100 µM
- IC50 ([2]; read-out: IC50): 2000 µM
